The source made the active and inactive calls. No cut-off for these calls is given here.
Legend:
[1] = molecular target: T1, von Hippel-Lindau disease tumor suppressor/Histone-lysine N-methyltransferase EHMT2 (Homo sapiens, UniProt Q96KQ7+P40337); assay: PROTAC activity at G9a/VHL in human 22Rv1 cells assessed as induction of G9a degradation at 3 uM measured at 4 hrs by Western blot analysis; format: cell-based
[2] = test system: PNT2; assay: Cytotoxicity against human PNT2 cells assessed as growth inhibition measured for 5 days; format: toxicity, cell-based; conditions: pnt2, 120 h, time 5 day
[3] = molecular target: Histone-lysine N-methyltransferase SETD2 (Homo sapiens) (UniProt Q9BYW2); assay: Inhibition of SETD2 (unknown origin) at 10 uM relative to control
[4] = molecular target: T1, von Hippel-Lindau disease tumor suppressor/Histone-lysine N-methyltransferase EHMT2; assay: PROTAC activity at G9a/VHL in human 22Rv1 cells assessed as induction of G9a degradation at 3 uM measured at 24 to 48 hrs by Western blot analysis; format: cell-based; conditions: time 24-48 hrs
[5] = molecular target: T1, von Hippel-Lindau disease tumor suppressor/Histone-lysine N-methyltransferase EHMT2; assay: PROTAC activity at G9a/VHL in human 22Rv1 cells assessed as effect on G9a level upto 3 uM measured for 24 hrs by Western blot analysis; format: cell-based
[6] = molecular target: Histone-lysine N-methyltransferase NSD2 (Homo sapiens) (UniProt O96028); assay: Inhibition of NSD2 (unknown origin) at 10 uM relative to control
[7] = molecular target: Protein arginine N-methyltransferase 8 (Homo sapiens) (UniProt Q9NR22); assay: Inhibition of PRMT8 (unknown origin) at 10 uM relative to control
[8] = molecular target: Histone-lysine N-methyltransferase SUV39H2 (Homo sapiens) (UniProt Q9H5I1); assay: Inhibition of SUV39H2 (unknown origin) at 10 uM relative to control
Sequence of Histone-lysine N-methyltransferase SUV39H2 (Homo sapiens) (Q9H5I1 whole entry): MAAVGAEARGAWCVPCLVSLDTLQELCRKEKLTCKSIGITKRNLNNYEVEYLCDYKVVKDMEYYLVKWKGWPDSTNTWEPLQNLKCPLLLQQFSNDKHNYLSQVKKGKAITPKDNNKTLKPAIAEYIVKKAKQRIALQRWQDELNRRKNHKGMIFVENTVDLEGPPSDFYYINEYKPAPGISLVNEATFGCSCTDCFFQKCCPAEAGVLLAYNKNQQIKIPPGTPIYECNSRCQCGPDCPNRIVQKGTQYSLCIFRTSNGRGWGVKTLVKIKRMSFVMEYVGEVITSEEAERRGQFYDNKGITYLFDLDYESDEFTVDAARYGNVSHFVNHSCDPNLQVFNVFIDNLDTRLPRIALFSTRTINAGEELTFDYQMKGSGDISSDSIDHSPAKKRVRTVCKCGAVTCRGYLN

[9] = molecular target: Histone-arginine methyltransferase CARM1 (Homo sapiens) (UniProt Q86X55); assay: Inhibition of PRMT4 (unknown origin) at 10 uM relative to control
[10] = Cmax in C57BL6 mouse plasma at 50 mg/kg, ip measured at 0.5 hrs by LC-MS/MS analysis; format: ADME, organism-based
[11] = molecular target: Histone-lysine N-methyltransferase, H3 lysine-79 specific (Homo sapiens) (UniProt Q8TEK3); assay: Inhibition of DOT1L (unknown origin) at 10 uM relative to control
Sequence of Histone-lysine N-methyltransferase, H3 lysine-79 specific (Homo sapiens) (Q8TEK3 whole entry, looked up): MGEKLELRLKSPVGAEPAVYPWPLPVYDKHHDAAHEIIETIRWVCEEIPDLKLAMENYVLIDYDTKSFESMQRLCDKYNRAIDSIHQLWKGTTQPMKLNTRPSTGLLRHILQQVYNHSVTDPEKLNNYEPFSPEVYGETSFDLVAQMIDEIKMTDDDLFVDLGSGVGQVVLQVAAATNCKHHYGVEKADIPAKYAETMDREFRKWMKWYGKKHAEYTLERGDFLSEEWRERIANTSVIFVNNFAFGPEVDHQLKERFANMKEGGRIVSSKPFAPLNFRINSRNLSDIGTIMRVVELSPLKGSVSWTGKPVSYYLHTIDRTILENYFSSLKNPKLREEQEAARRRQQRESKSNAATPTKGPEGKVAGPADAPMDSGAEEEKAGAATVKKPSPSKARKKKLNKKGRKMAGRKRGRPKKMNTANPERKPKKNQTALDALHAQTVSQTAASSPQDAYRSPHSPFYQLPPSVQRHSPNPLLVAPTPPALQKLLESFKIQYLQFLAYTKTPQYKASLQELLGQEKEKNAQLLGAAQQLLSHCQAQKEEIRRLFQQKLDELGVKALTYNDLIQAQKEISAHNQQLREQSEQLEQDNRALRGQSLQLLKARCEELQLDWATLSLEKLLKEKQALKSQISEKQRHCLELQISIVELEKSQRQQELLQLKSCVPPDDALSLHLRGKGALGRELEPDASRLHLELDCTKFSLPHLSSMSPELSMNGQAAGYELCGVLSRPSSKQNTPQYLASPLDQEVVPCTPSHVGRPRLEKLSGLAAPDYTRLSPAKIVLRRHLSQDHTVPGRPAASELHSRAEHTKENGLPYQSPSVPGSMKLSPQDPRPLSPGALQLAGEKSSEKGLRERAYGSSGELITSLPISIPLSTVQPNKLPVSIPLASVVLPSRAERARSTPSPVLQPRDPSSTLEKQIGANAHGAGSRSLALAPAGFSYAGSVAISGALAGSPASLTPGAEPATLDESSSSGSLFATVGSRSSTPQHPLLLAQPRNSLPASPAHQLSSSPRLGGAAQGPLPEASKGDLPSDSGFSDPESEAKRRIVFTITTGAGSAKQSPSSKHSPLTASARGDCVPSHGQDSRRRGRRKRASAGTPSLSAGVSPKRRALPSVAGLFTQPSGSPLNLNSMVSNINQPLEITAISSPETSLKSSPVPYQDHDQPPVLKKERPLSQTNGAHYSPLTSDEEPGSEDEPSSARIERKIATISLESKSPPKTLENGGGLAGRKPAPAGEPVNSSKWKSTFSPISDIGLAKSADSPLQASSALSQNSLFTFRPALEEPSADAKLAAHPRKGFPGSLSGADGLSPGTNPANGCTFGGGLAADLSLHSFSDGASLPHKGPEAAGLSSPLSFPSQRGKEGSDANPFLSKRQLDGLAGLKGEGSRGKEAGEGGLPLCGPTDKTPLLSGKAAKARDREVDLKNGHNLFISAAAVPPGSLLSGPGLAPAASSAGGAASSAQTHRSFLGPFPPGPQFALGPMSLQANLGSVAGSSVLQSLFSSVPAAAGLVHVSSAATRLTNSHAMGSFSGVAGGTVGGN

[12] = test system: CWR22R; assay: Effect on SET7/9 level in human 22Rv1 cells at 3 uM incubated for 24 hrs by Western blot analysis; format: functional, cell-based
[13] = molecular target: T2, von Hippel-Lindau disease tumor suppressor/Histone-lysine N-methyltransferase EHMT1 (Homo sapiens, UniProt Q9H9B1+P40337); assay: PROTAC activity at GLP/VHL in human 22Rv1 cells assessed as induction of GLP degradation at 3 uM measured at 4 hrs by Western blot analysis; format: cell-based
T2 sequence (P40337 whole entry partner): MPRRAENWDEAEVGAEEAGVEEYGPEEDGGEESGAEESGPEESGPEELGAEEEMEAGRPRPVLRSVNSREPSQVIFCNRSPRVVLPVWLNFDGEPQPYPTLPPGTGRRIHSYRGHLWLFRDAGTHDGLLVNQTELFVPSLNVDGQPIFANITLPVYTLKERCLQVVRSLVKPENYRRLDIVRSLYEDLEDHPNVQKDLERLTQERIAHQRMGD
T2 sequence (Q9H9B1 2-1298 limits assumed): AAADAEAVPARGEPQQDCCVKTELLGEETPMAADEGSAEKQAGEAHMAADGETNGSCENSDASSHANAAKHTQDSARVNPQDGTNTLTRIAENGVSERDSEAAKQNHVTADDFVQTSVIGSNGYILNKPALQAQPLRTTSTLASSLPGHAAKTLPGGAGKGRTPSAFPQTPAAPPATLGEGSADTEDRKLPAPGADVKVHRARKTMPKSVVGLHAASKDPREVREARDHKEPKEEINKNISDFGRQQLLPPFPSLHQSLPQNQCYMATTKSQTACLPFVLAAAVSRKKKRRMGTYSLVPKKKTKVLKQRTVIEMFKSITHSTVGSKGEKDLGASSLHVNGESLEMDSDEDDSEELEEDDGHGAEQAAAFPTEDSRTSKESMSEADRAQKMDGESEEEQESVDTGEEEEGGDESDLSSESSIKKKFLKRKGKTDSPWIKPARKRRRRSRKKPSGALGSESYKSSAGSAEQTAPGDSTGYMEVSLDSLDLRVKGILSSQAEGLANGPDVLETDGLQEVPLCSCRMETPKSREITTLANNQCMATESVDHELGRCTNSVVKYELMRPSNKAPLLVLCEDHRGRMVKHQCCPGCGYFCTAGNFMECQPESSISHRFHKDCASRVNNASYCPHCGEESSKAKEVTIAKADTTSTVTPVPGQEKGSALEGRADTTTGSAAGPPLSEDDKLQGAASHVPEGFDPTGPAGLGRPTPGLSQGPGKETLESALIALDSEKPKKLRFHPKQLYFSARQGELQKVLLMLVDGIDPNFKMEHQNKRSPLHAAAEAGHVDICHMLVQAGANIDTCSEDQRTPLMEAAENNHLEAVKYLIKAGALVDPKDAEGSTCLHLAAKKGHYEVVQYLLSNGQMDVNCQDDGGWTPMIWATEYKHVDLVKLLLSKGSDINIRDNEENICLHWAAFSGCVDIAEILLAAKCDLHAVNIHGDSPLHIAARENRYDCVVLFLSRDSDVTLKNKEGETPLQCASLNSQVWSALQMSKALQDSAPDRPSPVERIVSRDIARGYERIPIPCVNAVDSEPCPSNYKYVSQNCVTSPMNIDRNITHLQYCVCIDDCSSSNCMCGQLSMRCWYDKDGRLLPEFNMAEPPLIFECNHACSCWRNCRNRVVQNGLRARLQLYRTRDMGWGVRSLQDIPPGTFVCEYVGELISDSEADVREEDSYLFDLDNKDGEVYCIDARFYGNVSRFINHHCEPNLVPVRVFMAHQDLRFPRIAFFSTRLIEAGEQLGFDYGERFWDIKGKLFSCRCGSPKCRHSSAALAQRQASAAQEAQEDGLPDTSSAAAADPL

[14] = molecular target: Histone-lysine N-methyltransferase SUV39H1 (Homo sapiens) (UniProt O43463); assay: Inhibition of SUV39H1 (unknown origin) at 10 uM relative to control
[15] = test system: CWR22R; assay: Cytotoxicity against human 22Rv1 cells assessed as growth inhibition measured for 7 days; format: functional; conditions: 22Rv1, 168 h, time 7 day
[16] = molecular target: Histone-lysine N-methyltransferase SMYD3 (Homo sapiens) (UniProt Q9H7B4); assay: Inhibition of SMYD3 (unknown origin) at 10 uM relative to control
[17] = molecular target: T2, von Hippel-Lindau disease tumor suppressor/Histone-lysine N-methyltransferase EHMT1; assay: PROTAC activity at GLP/VHL in human 22Rv1 cells assessed as effect on GLP level upto 3 uM measured for 24 hrs by Western blot analysis; format: cell-based
[18] = molecular target: PRMT5/MEP50 complex (Homo sapiens) (UniProt O14744+Q9BQA1); assay: Inhibition of PRMT5/MEP50 (unknown origin) at 10 uM relative to control; format: protein-complex assay
[19] = test system: CWR22R; assay: Effect on PRMT7 level in human 22Rv1 cells at 3 uM incubated for 24 hrs by Western blot analysis; format: functional, cell-based
[20] = Cmax in C57BL6 mouse plasma at 50 mg/kg, ip measured at 8 hrs by LC-MS/MS analysis; format: ADME, organism-based

T1 sequence (P40337 whole entry partner): as the sequence (P40337 whole entry partner) above
T1 sequence (Q96KQ7 2-1210 limits assumed): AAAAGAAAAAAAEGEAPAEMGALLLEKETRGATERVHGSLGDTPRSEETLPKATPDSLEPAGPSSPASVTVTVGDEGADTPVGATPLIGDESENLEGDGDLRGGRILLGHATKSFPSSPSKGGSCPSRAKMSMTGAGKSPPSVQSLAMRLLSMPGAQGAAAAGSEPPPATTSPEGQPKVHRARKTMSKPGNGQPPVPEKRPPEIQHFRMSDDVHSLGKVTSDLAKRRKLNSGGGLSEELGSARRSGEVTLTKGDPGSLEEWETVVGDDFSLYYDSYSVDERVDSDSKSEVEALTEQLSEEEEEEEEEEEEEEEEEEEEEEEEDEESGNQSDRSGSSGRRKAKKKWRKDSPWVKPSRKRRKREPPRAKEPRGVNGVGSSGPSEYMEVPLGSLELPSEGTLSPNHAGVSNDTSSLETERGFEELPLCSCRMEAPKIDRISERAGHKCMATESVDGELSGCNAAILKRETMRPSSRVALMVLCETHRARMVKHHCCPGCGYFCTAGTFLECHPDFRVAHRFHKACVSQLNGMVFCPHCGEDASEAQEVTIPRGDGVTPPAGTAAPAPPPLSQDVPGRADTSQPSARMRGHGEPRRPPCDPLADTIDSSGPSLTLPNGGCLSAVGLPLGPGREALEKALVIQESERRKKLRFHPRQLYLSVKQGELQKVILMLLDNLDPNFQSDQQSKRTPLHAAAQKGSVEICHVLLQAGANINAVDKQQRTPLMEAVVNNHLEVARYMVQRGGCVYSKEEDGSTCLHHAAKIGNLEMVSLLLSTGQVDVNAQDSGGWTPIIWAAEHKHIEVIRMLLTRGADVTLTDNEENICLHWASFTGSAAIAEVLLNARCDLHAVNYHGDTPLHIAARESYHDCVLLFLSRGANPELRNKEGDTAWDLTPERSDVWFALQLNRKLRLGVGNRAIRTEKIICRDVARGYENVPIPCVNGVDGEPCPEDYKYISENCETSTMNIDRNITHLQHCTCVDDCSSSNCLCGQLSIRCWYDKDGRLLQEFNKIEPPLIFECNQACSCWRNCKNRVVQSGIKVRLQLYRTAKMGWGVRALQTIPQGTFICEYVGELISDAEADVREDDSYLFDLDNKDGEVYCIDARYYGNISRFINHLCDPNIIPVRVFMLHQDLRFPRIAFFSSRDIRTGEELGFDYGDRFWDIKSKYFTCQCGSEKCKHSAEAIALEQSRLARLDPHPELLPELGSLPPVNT

For `COc1cc2c(NC3CCN(CCCC(=O)NCCCCCCCCCCCC(=O)N[C@H](C(=O)N4C[C@H](O)C[C@H]4C(=O)NCc4ccc(-c5scnc5C)cc4)C(C)(C)C)CC3)nc(N3CCC(F)(F)CC3)nc2cc1OCCCN1CCCC1`, the Activity [1] was “Active”, the Activity [2] was “Non-Toxic” and the inhibition [3] was greater than 50%. For the same molecule, the Activity [4] was 100%, the Activity [5] was “Active” and the inhibition [6] was greater than 50%. The inhibition [7] was greater than 50%, the inhibition [8] was greater than 50% and the inhibition [9] was greater than 50%. The Cmax [10] was 27 µM, the inhibition [11] was greater than 50% and the Activity [12] was “Active”. For the same molecule, the Activity [13] was “Active”, the inhibition [14] was greater than 50% and the GI50 [15] was 4.1 µM. For the same molecule, the inhibition [16] was greater than 50%, the Activity [17] was “Active” and the inhibition [18] was greater than 50%. The Activity [19] was “Active” and the Cmax [20] was greater than 5 µM.

Source: ChEMBL document CHEMBL5543145, “Discovery of the First-in-Class G9a/GLP PROTAC Degrader” (J Med Chem, 2024)
